Data: ChEMBL document CHEMBL4033765, “Synthesis and Evaluation of a Linkable Functional Group-Equipped Analogue of the Epothilones” (2017)

What was measured:
PC-3 = assay: Growth inhibition of human PC3 cells after 4 days by SRB assay; type: functional; conditions: PC-3, 96 h
A549 = assay: Growth inhibition of human A549 cells after 4 days by SRB assay; type: functional; conditions: A549, 96 h

SMILES	GI50 (PC-3) [nM]	GI50 (A549) [nM]
CC(=O)NCCCC[C@H]1C(=O)C(C)(C)[C@@H](O)CC(=O)O[C@H](/C(C)=C/c2csc(C)n2)C[C@@H]2O[C@]2(C)CCC[C@H](C)[C@@H]1O	2	1
COCCOCCC(=O)NCCCC[C@H]1C(=O)C(C)(C)[C@@H](O)CC(=O)O[C@H](/C(C)=C/c2csc(C)n2)C[C@@H]2O[C@]2(C)CCC[C@H](C)[C@@H]1O	1.9	0.9
CC(=O)O[C@H]1C(=O)[C@@]2(C)[C@H]([C@H](OC(=O)c3ccccc3)[C@]3(O)C[C@H](OC(=O)[C@H](O)[C@@H](NC(=O)c4ccccc4)c4ccccc4)C(C)=C1C3(C)C)[C@]1(OC(C)=O)CO[C@@H]1C[C@@H]2O [PACLITAXEL]	5.8	3.7
C/C(=C\c1csc(C)n1)[C@@H]1C[C@@H]2O[C@]2(C)CCC[C@H](C)[C@H](O)[C@@H](C)C(=O)C(C)(C)[C@@H](O)CC(=O)O1 [PATUPILONE]	1.7	0.7
